Literature values, collected in patent US20230149389A1, “METHODS OF REDUCING MORTALITY IN SUBJECTS SUFFERING FROM AN UNDERLYING DISEASE OR CONDITION BY ADMINISTRATION OF METHYLNALTREXONE” (Bausch Health Ireland Limited, priority 2020, published 2023).

Experiments:
[1] = cited from earlier work
murine model of sepsis = conditions: mouse, in vivo; cited from earlier work
[2] = system: human dermal endothelial and pulmonary cells; conditions: at clinically relevant levels; cited from earlier work

SMILES	incidence rate for MI ([1]; placebo 0%)	incidence rate for cardiovascular events ([1]; placebo 1.12%)	mortality in murine model of sepsis (murine model of sepsis)	angiogenic activity relative to vascular endothelial growth factor [2]
C[C@H]1CN(C[C@H](Cc2ccccc2)C(=O)NCC(=O)O)CC[C@@]1(C)c1cccc(O)c1 [alvimopan]	1.30%	2.60%	–	–
CN1CC[C@]23c4c5ccc(O)c4O[C@H]2[C@@H](O)C=C[C@H]3[C@H]1C5 [morphine]	–	–	increased mortality	70%
